Test results reported in patent publication US4599228A, “Antimicrobial agent” (Vipont Laboratories, Inc., priority 1984, dated 1986).
Entries after “also recorded” stand apart in the source; their conditions may differ. Read-outs that look alike come from different tables or passages of the source.

Tests used:
microorganisms = assay: General antimicrobial activity in vitro; type: cell-based
Source text: When zinc chloride was replaced with a fluoride salt in the present preparations, the activity of the preparation against microorganisms believed to be associated with the causation of dental caries and periodontal disease (Streptococcus mutans), as well as other microorganisms, remained identical.

fungi and protozoa = settings: in solution; cited from earlier work
Bacillus subtilis = assay: Mean inactivating dose in vitro; type: cell-based; settings: per ml of media
Method: (§1) In order to illustrate the antimicrobial effectiveness of the composition according to the present invention, a series of in vitro and in vivo tests were performed.

Escherichia coli [1] = assay: Mean inactivating dose in vitro; type: cell-based; settings: per ml of media
Method: as §1

Klebsiella pneumoniae = assay: Mean inactivating dose in vitro; type: cell-based; settings: per ml of media
Method: as §1

Proteus vulgaris = assay: Mean inactivating dose in vitro; type: cell-based; settings: per ml of media
Method: as §1

Pseudomonas aeruginosa = assay: Mean inactivating dose in vitro; type: cell-based; settings: per ml of media
Method: as §1

Saccharomyces cerevisiae = assay: Mean inactivating dose in vitro; type: cell-based; settings: per ml of media
Method: as §1

Staphylococcus aureus [2] = assay: Mean inactivating dose in vitro; type: cell-based; settings: per ml of media
Method: as §1

Streptococcus faecalis = assay: Mean inactivating dose in vitro; type: cell-based; settings: per ml of media
Method: as §1

Streptococcus mutans [3] = assay: Mean inactivating dose in vitro; type: cell-based; settings: per ml of media
Method: as §1

[4] = test system: gingivitis, plaque and pocket depth in dogs; assay: Oral Clinical Studies - Beagles (dogs); type: in vivo, beagle dogs; parameters: Mean Gingivitis Scores / Mean Plaque Scores: scale not given here; settings: for Mean Gingivitis Scores / Mean Plaque Scores / Mean Pocket Depths / gingivitis, activity in words / return of dental plaque, activity in words: beagles; for Mean Gingivitis Scores / Mean Plaque Scores / Mean Pocket Depths: 0.1% sanguinarine chloride and/or 2.7% zinc chloride; for gingivitis, activity in words / return of dental plaque, activity in words: four weeks of treatment
Method: The dogs were treated topically once daily with the respective test formulation.

infection = assay: In vivo antimicrobial action and tolerability (clinical studies)
Candida albicans = assay: Inhibitory concentration in vitro, separate test; type: cell-based
Method: (§2) A separate test was conducted to determine the inhibitory concentration of sanguinarine chloride alone. These concentrations, for microorganisms in vitro, are as follows: […]

Escherichia coli [5] = assay: Inhibitory concentration in vitro, separate test; type: cell-based
Method: as §2

Staphylococcus aureus [6] = assay: Inhibitory concentration in vitro, separate test; type: cell-based
Method: as §2

Streptococcus mutans [7] = assay: Inhibitory concentration in vitro, separate test; type: cell-based
Method: as §2

[8] = test system: plaque forming microorganisms freshly collected from human dental plaque; assay: Dental plaque reduction in vitro; type: cell-based
[9] = test system: dental plaque / plaque forming microorganisms; assay: In vivo plaque, gingivitis and periodontal disease treatment of dogs and humans
[10] = 0 (start), baseline, topical once daily
[11] = after 4 weeks, topical once daily, untreated 0.91
[12] = after 4 weeks, topical once daily, untreated 1.458
[13] = after 4 weeks, topical once daily, untreated 12.408

In the case of `COc1ccc2c(c[n+](C)c3c4cc5c(cc4ccc23)OCO5)c1OC` [chelerythrine chloride], the antimicrobial properties (microorganisms) is reported as “strong antimicrobial properties”.

In the case of `C[n+]1cc2c3c(ccc2c2ccc4cc5c(cc4c21)OCO5)OCO3` [sanguinarine], the “antifungal and antiprotozoan properties” value (fungi and protozoa) is given as “some antifungal and antiprotozoan properties”.

For `[Cl-].[Cl-].[Zn+2]` [Zinc chloride, zinc chloride, reference compound], the Mean inactivating dose (Bacillus subtilis) was 25,000 μg/ml, the Mean inactivating dose (Escherichia coli [1]) was 6,250 μg/ml and the Mean inactivating dose (Klebsiella pneumoniae) was 3,125 μg/ml. For the same molecule, the Mean inactivating dose (Proteus vulgaris) was 12,500 μg/ml, the Mean inactivating dose (Pseudomonas aeruginosa) was 3,500 μg/ml and the Mean inactivating dose (Saccharomyces cerevisiae) was 6,250 μg/ml. The Mean inactivating dose (Staphylococcus aureus [2]) was 6,250 μg/ml, the Mean inactivating dose (Streptococcus faecalis) was 25,000 μg/ml and the Mean inactivating dose (Streptococcus mutans [3]) was 1,563 μg/ml. The “Mean Gingivitis Scores” value [4, 10] was 0.44, the “Mean Plaque Scores” value [4, 10] was 8.76 and the “Mean Pocket Depths” value [4, 10] was 1.46. The “Mean Gingivitis Scores” value [4, 11] was 0.75, the “Mean Pocket Depths” value [4, 12] was 1.37 and the “Mean Plaque Scores” value [4, 13] was 10.15. For the same molecule, the “gingivitis, activity in words” value [4] was “slightly active”, the “return of dental plaque, activity in words” value [4] was “slightly preventive” and the antimicrobial properties (microorganisms) was “antimicrobial properties only in high concentrations”. For the same molecule, the “speed of action in vivo” value (infection) was “slow acting in vivo as an antimicrobial agent” and the “tissue damage / undesirable side effects” value (infection; concentrations required for antimicrobial action) was “caused blanching of tissue and, in some cases, chemical burns and other tissue damage”.

In the case of `C[n+]1cc2c3c(ccc2c2ccc4cc5c(cc4c21)OCO5)OCO3` [Sanguinarine chloride, sanguinarine chloride], the MIC (Candida albicans) is reported as 100 mg/L, the MIC (Escherichia coli [5]) is reported as 100 mg/L and the MIC (Staphylococcus aureus [6]) is reported as 10 mg/L. For the same molecule, the MIC (Streptococcus mutans [7]) was 50 mg/L, the “comparison with chlorhexidine (Hibitane), inhibition of plaque forming microorganisms” value [8] was “compared favorably in vitro to chlorhexidine” and the “reduction of dental plaque” value ([8]; 25 micrograms per milliliter) was 100%. For the same molecule, the “effect against plaque forming microorganisms in vivo” value ([9]; in vivo) was “ineffective against plaque forming microorganisms”, the “effect on dental plaque, gingivitis and periodontal disease” value ([9]; repeated or continuous treatment of affected area, dogs and humans) was “did not reduce dental plaque or alleviate the symptoms of gingivitis or periodontal disease; also recorded: did not prevent the accumulation of dental plaque on teeth or prevent the occurrence of periodontal disease” and the “Mean Gingivitis Scores” value [4, 10] was 0.495. The “Mean Plaque Scores” value [4, 10] was 8.885, the “Mean Pocket Depths” value [4, 10] was 1.415 and the “plaque and gingivitis scores, rank among groups” value ([4]; 24 male beagle dogs, after four weeks, topical once daily) was “highest”. The “Mean Gingivitis Scores” value [4, 11] was 0.942, the “Mean Pocket Depths” value [4, 12] was 1.48 and the “Mean Plaque Scores” value [4, 13] was 12.89. The “gingivitis, activity in words” value [4] was “no activity in vivo at all”, the “return of dental plaque, activity in words” value [4] was “not active in vivo” and the antimicrobial properties (microorganisms) was “strong antimicrobial properties”. The antimicrobial properties (microorganisms; listed as sanguinarine chloride) was “quite effective against microorganisms” and the “in vivo effectiveness / antimicrobial action” value (infection) was “only slightly effective or not at all; also recorded: only slightly antimicrobial, very slow acting, or had no effect on the course of the infection at all”.
